In patent US11654110B2, “Composition and methods for the treatment of peripheral nerve injury” (UNIVERSITY OF ROCHESTER, priority 2013, dated 2023):

Legend:
compressed nerves = assay: Nerve conduction velocity of chronically compressed nerve (sleeve around the nerve); assay type: in vivo, mice; details: 4-AP IP single bolus; 7, 9, 12 weeks of compression
Method: FIGS. 1A, 1B and 1C show graphs of nerve conduction velocity at 7 weeks (FIG. 1A), 9 weeks (FIG. 1B) and 12 weeks (FIG. 1C) of compression and treatment with high dose 4-AP (HD), low dose of 4-AP (LD), and saline (Sal). 4-AP was administered IP in a single dose as a bolus.
The concept that 4-AP may have a role in the treatment of compressed nerves emanates from data showing that the conduction velocity of compressed nerves can respond strongly to pharmacologic treatment with this agent. […] Therefore, 4-AP may be used locally or systemically for the treatment of chronic compression injury.

[1] = intravenous and oral gelatin-based capsule treatments; cited from earlier work
crushed sciatic nerve [2] = assay: Sciatic nerve crush injury, sciatic function index (SFI) by walking track analysis; assay type: in vivo, mice
Method: There are also possible effects of the 4-AP on nerve injuries suffered more acutely. Acute nerve injury is both common and difficult to treat. One type of acute peripheral nerve injury with a murine model available for study is the sciatic nerve crush injury model in mice and rats. In this model, the nerve is crushed with a variable amount of force which creates a measurable functional deficit in gait. This deficit is measured using a sciatic function index which is an accepted and validated measure of the functional effects of the injury.
(§1) Mouse Model of Peripheral Nerve Injury. All procedures were approved by the University of Rochester Committee on Animal Resources. Female 10-week-old C57BL6 mice were performed sciatic nerve crush injury on the left hindlimb and the sham-surgery on the other one. All extensive surgery procedures were as described previously (Elfar et al., The Journal of Bone and Joint Surgery, 90: 1644-1653 (2008)). rhEPO was administered immediately at a dose of 5000 U/kg (Juul, Acta Paediatrica 91:36-42 (2002), Bianchi et al., PNAS 101:823-828 (2004), and Elfar et al., The Journal of Bone and Joint Surgery, 90:1644-1653 (2008)).
Sciatic Function Index (SFI) Determined by Walking Track Analysis. The assessment of motor function recovery was performed by calculating the sciatic function index (SFI). Walking track analysis was performed according to a published model that quantifies sciatic nerve function performance (de Medinaceli et al., Exp. Neurol. 77:634-643 (1982)). The operating procedure is extensively described previously (Elfar et al., The Journal of Bone and Joint Surgery, 90:1644-1653 (2008)). In brief, individual mouse footprints were obtained by painting each foot and walked down the 50 cm path in a narrow corridor lined with paper. Gaits were measured from the resulting footprints to get (1) toe spread (TS) (first through fifth toes), (2) print length (PL), and (3) intermediate toe spread (ITS) (second, third, and fourth toes) of both limbs (Gladman et al., The Journal of Neuroscience, 32:563-571 (2012)). All three measurements from the three most clearly inked foot prints per run were taken from the normal (N) and experimental (E) sides, and the SFI were calculated using the following formula: SFI=−38.3((EPL−NPL)/NPL)+109.5((ETS−NTS)/NTS)+13.3((EIT−NIT)/NIT)−8.8 where E is the injured limb and N is the control limb.

[3] = test system: Schwann cell-DRG neuron co-cultures; assay: DRG neuron and Schwann cell myelinating co-cultures, MBP+ myelin quantification; assay type: cell-based
Method: Primary Schwann Cell Culture.
Dorsal Root Ganglia (DRG) Neuron Cell Culture. DRG neurons were isolated from E18 embryos of Sprague-Dawley rats and 5,000 neurons were seeded in laminin/poly-L-lysine coated 48 well plates. Primary DRG neurons were maintained in Neurobasal media supplemented with B27 containing antioxidants, 50 ng/mL NGF, and 1 μM Ara-C. 1 μM Ara-C treatment was performed three times for two days each time following two days of fresh medium without Ara-C to eliminate fibroblasts. After two weeks, DRG neurons with extensive axons were seeded with Schwann cells for myelination tests (Syed et al., The Journal of Neuroscience 30:6122-6131 (2010)).
DRG Neuron and Schwann Cell Myelinating Co-cultures. Thirty thousand (30,000) Schwann cells were plated onto the DRG neurons per well. Co-cultures were maintained in differentiation media (DMEM/F12 (1:1), 50 ng/mL NGF, 1× N2 supplement) for a week. Co-cultures were then changed to myelinating medium (MEM, 50 ng/mL NGF, 50 μg/mL ascorbic acid, 10% FBS) for two weeks. Medium was changed every two days (Syed et al., The Journal of Neuroscience 30:6122-6131 (2010)). EPO was added three times at day 6 of differentiating stage, day 1, and day 3 of myelinating stage.
Myelin Quantification. To quantify the extent of myelination in co-cultures, the total number of MBP+ myelin was counted within the whole culture well and normalized by the total cell number (DAPI+).
To determine whether EPO enhances Schwann cell-mediated myelination directly we exposed Schwann cell-DRG neuron co-cultures to various concentrations of EPO (1, 10, 100 unit/mL of EPO). In FIG. 15A, every single short thread-like MBP+ staining cells representing a myelin formed by a single myelinating Schwann cell wrapped around the axon.

[4] = test system: glutathione S-transferase and gamma-glutamylcysteine synthetase; details: 100 U/mL EPO, isolated Schwann cell cultures
Description: (unpaired t-test, n=4, p<0.01) FIG. 15D is a gel image of immunoblotting of glutathione S-transferase and gamma-glutamylcysteine synthetase levels in Schwann cells with 100 U/mL EPO treatment.

crushed sciatic nerve [5] = assay: Immunofluorescent staining of myelinated (P0+) and total (neurofilament+) axons in crushed sciatic nerve; assay type: in vivo, mice; details: systemic EPO directly after crush; 7 days post-injury
Description: FIGS. 14A, 14B, and 14C are images and a graph showing EPO supported preservation of myelin within crushed nerves. FIG. 14A is an image of the immunofluorescent staining of destroyed myelin sheath at the injured site 7 days post-injury. FIG. 14B is an image showing immunofluorescent staining of myelinated axons and total axons in the cross sections of sciatic nerves 7 days post-injury. Representative images of the cross sections of the sciatic nerves (a, d: healthy nerve; b, c, e, f: crushed nerve). FIG. 14C is a graph showing the ratio of the number of myelinated axon to total axons of crushed sciatic nerves with or without EPO administration. (unpaired t-test, n=3, three animals for each set, p<0.01).
as §1
To work towards the underlying action by which EPO works, it was noticed that the speed of recovery in injured mice was too rapid to be attributable to axonal regeneration. 4-aminopyridine (4-AP) is a potassium channel blocker which enables demyelinated axons to conduct impulses, and thus can be used to identify injuries in which whether there exist anatomically intact but demyelinated axons. Mice receiving a sciatic nerve crush injury, performed poorly in SFI tests 3 days after injury. […] The effect of 4-AP raises the possibility that the benefits of EPO may be due to preservation of myelin and/or improvement of remyelination. […] In untreated mice only 25% of axons (neurofilament+) were associated with myelin (P0+) whereas EPO treatment raised this ratio to 60%.

Nc1ccncc1 [4-AP, 4-aminopyridine]
conduction velocity of compressed nerve (ratio to contralateral uninjured nerve) (compressed nerves): strong effects of 4-AP administration was seen | plasma half-life [1]: 3 to 4 h | time to maximum plasma concentration [1]: about 1 hour | sciatic function index (gait) (crushed sciatic nerve [2]; 4-AP administered systemically on day 3 or day 5 after crush injury): large improvement in the function of the animals gait | SFI (crushed sciatic nerve [2]; intraperitoneal 100 μg 4-AP, 3 days after injury): significant transient improvement in SFI

EPO: Recombinant human erythropoietin, 30.4-kDa hematopoietic glycoprotein
myelin formation under NO stress ([3]; 100 μM SNAP with 100 U/mL EPO): notably recovered myelin formation | total number of MBP+ myelin ([3]; 1, 10, 100 unit/mL of EPO): increased the total number of the MBP+ myelin in co-culture and was found to be dose-dependent | glutathione S-transferase and gamma-glutamylcysteine synthetase levels [4]: up-regulated | number of axons (crushed sciatic nerve [5]): without significantly altering the number of axons | number of myelinated fibers versus untreated (crushed sciatic nerve [5]): almost tripled | ratio of myelinated (P0+) axons to total axons (neurofilament+) (crushed sciatic nerve [5]): 60% | functional improvements in SFI over control groups (crushed sciatic nerve [2]; local EPO in fibrin glue vehicle at the site of crush injury, 0.5 U): 15% | SFI function, higher than in untreated animals (crushed sciatic nerve [2]; single subcutaneous EPO 5000 U/kg directly after injury, 7 days after injury): 20% | SFI more restored compared to control group (crushed sciatic nerve [2]; single subcutaneous EPO 5000 U/kg directly after injury, day 14 after injury): 15% | hind limb / foot appearance (crushed sciatic nerve [2]; systemic EPO 5000 U/kg, seven days post-surgery): close-to-normal appearance

CC(=O)NC(C(=O)O)C(C)(C)SN=O (racemic) [SNAP, S-Nitroso-N-acetyl-DL-penicillamine, reference compound]
baseline myelination ([3]; 100 μM SNAP): robust decrease in baseline myelination | cell death ([3]; 100 μM SNAP): significant cell death was not observed
